Tested on: Corn (cultivar: Kuromochi)
Experiment: Test Example 2: promotion of growth by treatment of corn seeds
Assay type: in vivo
Conditions: corn seed treatment, 50 g per 100 kg of seeds; cultivated 18 days at 27° C.
Description: Evaluation Test for Promotion of Growth by Treatment of Corn Seeds Corn (cultivar: Kuromochi) A blank slurry solution containing 10% (V/V) color coat red (Becker Underwood, Inc.), 10% (V/V) CF-Clear (Becker Underwood, Inc.) and 1.66% Maxim 4FS (Syngenta) was prepared. A slurry solution was prepared by dissolving the present compound 1 in the blank slurry solution such that 50 g of the compound is applied to each 100 kg of corn seeds. In a 50-ml centrifuge tube (manufactured by BD Japan), 0.35 ml of the slurry solution was placed for each 14.4 g of corn seeds and stirred until the solution was dried, thereby coating the seeds. In addition, seeds were coated with the blank slurry solution and used as seeds for a non-treated group. One of the treated seeds was sown in culture soil (AISAI) in each pot (55 mm in diameter×58 mm in height) and cultivated for 18 days under the conditions of a temperature of 27° C., an illuminance of 5,000 lux, and a day length of 16 hours. After the cultivation, the fresh weight of the overground part of the plants was measured. The experiment was performed in three replications for each treatment condition and the average weight per individual was calculated. […]

COC(=O)c1cc2cc(C(F)(F)F)ccc2s1 [compound 1]
fresh weight of the overground part of plants vs non-treated group: much heavier
